Assays:
hChoKβ FL = target: T1, hChoKβ FL (Homo sapiens, UniProt Q9Y259); assay: Biochemical kinase inhibition assay (Kinase-Glo Luminescent Kinase Assay) on hChoKβ FL; settings: ATP 5 μM, choline 20 μM, 60 minutes at rt; read-out: IC50 ChoKβ
T1 construct: hChoKβ full length (FL), corresponding to aminoacids 2-395; GST (N, cleaved yes); Prescission Protease recognition site (N, cleaved yes); made in house; host or cells: Escherichia coli BL21pLysS (DE3)
Procedure: The biochemical activity of compounds against Δ49N-ChoKα and ChoKβ FL were determined using the Kinase-Glo™ Luminescent Kinase Assay (Promega cat. V6711).
Compounds were 3-fold serially diluted from 10 to 0.0005 μM, then incubated for 60 minutes at rt in the presence of ATP 5 μM, choline (5 μM for ChoKα and 20 μM for ChoKβ) and enzyme in a final volume of 19 μL of kinase buffer (50 mM Hepes pH 7.5, 10 mM MgCl2, 1 mM DTT, 3 μM Na3VO4 and 0.2 mg/mL BSA). The final concentration of DMSO was 1%.
At the end of the incubation, an amount of 19 μL of KinaseGlo Reagent was added to each well to stop the reaction and after 30 minutes the luminescence signal was measured using ViewLux reader (Perkin Elmer).
The data per each molecule are analyzed by an internally customized version of the SW package “Assay Explorer” which provides sigmoidal fittings of the ten-dilution curves for IC50 determination using a 4 parameter logistic equation: y=bottom+(top−bottom)/(1+10^((log IC50−x)*slope)) where x is the logarithm of the inhibitor concentration, y is the response; y starts at bottom and goes to top with a sigmoid shape.

Δ49N-hChoKα = target: T2, Δ49N-hChoKα (Homo sapiens, UniProt P35790); assay: Biochemical kinase inhibition assay (Kinase-Glo Luminescent Kinase Assay) on Δ49N-hChoKα; settings: ATP 5 μM, choline 5 μM, 60 minutes at rt; read-out: IC50 ChoKα
T2 construct: cDNA fragment 362-1534, corresponding to aminoacids 50-457; GST (N, cleaved yes); Prescission Protease recognition site (N, cleaved yes); made in house; host or cells: Escherichia coli BL21pLysS (DE3)
T2 sequence (P35790 50-457, stated change not applied): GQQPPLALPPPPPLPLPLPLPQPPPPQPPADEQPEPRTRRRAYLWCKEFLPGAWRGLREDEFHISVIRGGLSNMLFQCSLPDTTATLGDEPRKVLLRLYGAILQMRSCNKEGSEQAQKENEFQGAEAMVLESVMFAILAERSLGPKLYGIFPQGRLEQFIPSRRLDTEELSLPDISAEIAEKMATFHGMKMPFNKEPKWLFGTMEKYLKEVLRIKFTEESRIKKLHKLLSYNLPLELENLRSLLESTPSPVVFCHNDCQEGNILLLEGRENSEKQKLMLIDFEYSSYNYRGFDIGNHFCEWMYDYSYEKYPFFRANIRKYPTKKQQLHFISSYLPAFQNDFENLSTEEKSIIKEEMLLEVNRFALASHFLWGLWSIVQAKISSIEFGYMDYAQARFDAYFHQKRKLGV

T1 sequence (Q9Y259 2-395): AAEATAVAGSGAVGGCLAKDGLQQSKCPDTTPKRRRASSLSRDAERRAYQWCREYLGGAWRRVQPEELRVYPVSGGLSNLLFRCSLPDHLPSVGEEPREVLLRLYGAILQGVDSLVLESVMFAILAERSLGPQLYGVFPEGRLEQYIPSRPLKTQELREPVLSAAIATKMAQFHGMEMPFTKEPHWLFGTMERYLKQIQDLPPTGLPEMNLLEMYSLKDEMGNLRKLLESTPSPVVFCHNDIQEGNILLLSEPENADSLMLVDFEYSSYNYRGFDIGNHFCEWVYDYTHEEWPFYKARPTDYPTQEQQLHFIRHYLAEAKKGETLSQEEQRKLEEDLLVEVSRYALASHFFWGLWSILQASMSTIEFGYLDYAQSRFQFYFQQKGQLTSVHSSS

| Compound | IC50 (hChoKβ FL) [nM] | IC50 (Δ49N-hChoKα) [nM] |
| --- | --- | --- |
| COc1cccc(NC(=O)[C@H]2CC[C@@H](n3cnc4c(N)nc(-c5ccnc(F)c5)nc43)CC2)c1 [cpd 15, cis-4-[6-amino-2-(2-fluoropyridin-4-yl)-9H-purin-9-yl]-N-(3-methoxyphenyl)cyclohexanecarboxamide] | – | 419 |
| COc1cccc(NC(=O)[C@H]2CC[C@@H](n3cnc4c(N)nc(-c5ccc(F)nc5)nc43)CC2)c1 [cpd 19, cis-4-[6-amino-2-(6-fluoropyridin-3-yl)-9H-purin-9-yl]-N-(3-methoxyphenyl)cyclohexanecarboxamide] | – | 795 |
| CN1CCN(Cc2ccc(NC(=O)Cc3ccc(NC(=O)[C@H]4CC[C@@H](n5cnc6c(N)nc(Cl)nc65)CC4)cc3)cc2C(F)(F)F)CC1 [cpd 35, cis-4-(6-amino-2-chloro-9H-purin-9-yl)-N-{4-[2-({4-[(4-methylpiperazin-1-yl)methyl]-3-(trifluoromethyl)phenyl}amino)-2-oxoethyl]phenyl}cyclohexanecarboxamide] | 430 | 13 |
| CN1CCN(Cc2ccc(NC(=O)Cc3ccc(NC(=O)[C@H]4CC[C@@H](n5cnc6c(N)nc(Cl)nc65)CC4)cc3)cc2)CC1 [cpd 36, cis-4-(6-amino-2-chloro-9H-purin-9-yl)-N-{4-[2-({4-[(4-methylpiperazin-1-yl)methyl]phenyl}amino)-2-oxoethyl]phenyl}cyclohexanecarboxamide] | 1350 | 53 |
| COc1ccc(NC(=O)[C@H]2CC[C@@H](n3cnc4c(N)nc(-c5ccncc5)nc43)CC2)cc1OC [cpd 37, cis-4-[6-amino-2-(pyridin-4-yl)-9H-purin-9-yl]-N-(3,4-dimethoxyphenyl)cyclohexanecarboxamide] | > 10000 | 844 |
| C#Cc1nc(N)c2ncn([C@H]3CC[C@@H](C(=O)Nc4cccc(OC)c4)CC3)c2n1 [cpd 45, cis-4-(6-amino-2-ethynyl-9H-purin-9-yl)-N-(3-methoxyphenyl)cyclohexanecarboxamide] | 4980 | 195 |
| Nc1nc(Cl)nc2c1ncn2[C@H]1CC[C@@H](C(=O)Nc2nnc(C(F)(F)F)s2)CC1 [cpd 64, cis-4-(6-amino-2-chloro-9H-purin-9-yl)-N-[5-(trifluoromethyl)-1,3,4-thiadiazol-2-yl]cyclohexanecarboxamide] | > 10000 | 196 |
| Nc1nc(Cl)nc2c1ncn2[C@H]1CC[C@@H](C(=O)Nc2nccs2)CC1 [cpd 72, cis-4-(6-amino-2-chloro-9H-purin-9-yl)-N-(1,3-thiazol-2-yl)cyclohexanecarboxamide] | > 10000 | 61 |
| COc1cccc2sc(NC(=O)[C@H]3CC[C@@H](n4cnc5c(N)nc(Cl)nc54)CC3)nc12 [cpd 91, cis-4-(6-amino-2-chloro-9H-purin-9-yl)-N-(4-methoxy-1,3-benzothiazol-2-yl)cyclohexanecarboxamide] | 7380 | – |
| COc1ccc2nc(NC(=O)[C@H]3CC[C@@H](n4cnc5c(N)nc(Cl)nc54)CC3)sc2c1 [cpd 92, cis-4-(6-amino-2-chloro-9H-purin-9-yl)-N-(6-methoxy-1,3-benzothiazol-2-yl)cyclohexanecarboxamide] | 5030 | – |
| NC(=O)Cc1ccc2nc(NC(=O)[C@H]3CC[C@@H](n4cnc5c(N)nc(Cl)nc54)CC3)sc2c1 [cpd 177, cis-4-(6-amino-2-chloro-9H-purin-9-yl)-N-[6-(2-amino-2-oxoethyl)-1,3-benzothiazol-2-yl]cyclohexanecarboxamide] | 3810 | – |
| Nc1nc(Cl)nc2c1ncn2[C@H]1CC[C@@H](C(=O)Nc2nc3c(s2)CN(C2CC2)CC3)CC1 [cpd 184, cis-4-(6-amino-2-chloro-9H-purin-9-yl)-N-(5-cyclopropyl-4,5,6,7-tetrahydro[1,3]thiazolo[5,4-c]pyridin-2-yl)cyclohexanecarboxamide] | 6710 | – |

The remaining lines, values ahead:

| IC50 (hChoKβ FL) [nM] | IC50 (Δ49N-hChoKα) [nM] | Compound |
| --- | --- | --- |
| > 10000 | – | COc1cccc(NC(=O)[C@H]2CC[C@@H](n3cnc4c(N)nc(-c5ccncc5)nc43)CC2)c1 [cpd 9, cis-4-[6-amino-2-(pyridin-4-yl)-9H-purin-9-yl]-N-(3-methoxyphenyl)cyclohexanecarboxamide] |
| – | 883 | COc1cccc(NC(=O)[C@H]2CC[C@@H](n3cnc4c(N)nc(-c5ccnc(OC)c5)nc43)CC2)c1 [cpd 21, cis-4-[6-amino-2-(2-methoxypyridin-4-yl)-9H-purin-9-yl]-N-(3-methoxyphenyl)cyclohexanecarboxamide] |
| 1880 | 257 | COc1cccc(NC(=O)[C@H]2CC[C@@H](n3cnc4c(N)nc(-c5ccc(C(=O)Nc6ccc(CN7CCN(C)CC7)cc6)cc5)nc43)CC2)c1 [cpd 29, 4-(6-amino-9-{cis-4-[(3-methoxyphenyl)carbamoyl]cyclohexyl}-9H-purin-2-yl)-N-{4-[(4-methylpiperazin-1-yl)methyl]phenyl}benzamide] |
| > 10000 | 305 | COc1cccc(NC(=O)[C@H]2CC[C@@H](n3cnc4c(N)nc(-c5cccc(C(=O)Nc6ccc(CN7CCN(C)CC7)cc6)c5)nc43)CC2)c1 [cpd 30, 3-(6-amino-9-{cis-4-[(3-methoxyphenyl)carbamoyl]cyclohexyl}-9H-purin-2-yl)-N-{4-[(4-methylpiperazin-1-yl)methyl]phenyl}benzamide] |
| > 10000 | 40 | COc1cccc(NC(=O)[C@H]2CC[C@@H](n3cnc4c(N)nc(-c5cccc(C(=O)Nc6ccc(CN7CCC(N(C)C)CC7)cc6)c5)nc43)CC2)c1 [cpd 31, 3-(6-amino-9-{cis-4-[(3-methoxyphenyl)carbamoyl]cyclohexyl}-9H-purin-2-yl)-N-(4-{[4-(dimethylamino)piperidin-1-yl]methyl}phenyl)benzamide] |
| 4570 | 21 | COc1cccc(NC(=O)[C@H]2CC[C@@H](n3cnc4c(N)nc(-c5ccc(C(=O)Nc6ccc(CN7CCC(N(C)C)CC7)cc6)cc5)nc43)CC2)c1 [cpd 33, 4-(6-amino-9-{cis-4-[(3-methoxyphenyl)carbamoyl]cyclohexyl}-9H-purin-2-yl)-N-(4-{[4-(dimethylamino)piperidin-1-yl]methyl}phenyl)benzamide] |
| > 10000 | 441 | COc1cccc(NC(=O)[C@H]2CC[C@@H](n3cnc4c(N)nc(I)nc43)CC2)c1 [cpd 41, cis-4-(6-amino-2-iodo-9H-purin-9-yl)-N-(3-methoxyphenyl)cyclohexanecarboxamide] |
| > 10000 | 283 | Cc1cccc(NC(=O)[C@H]2CC[C@@H](n3cnc4c(N)nc(Cl)nc43)CC2)c1 [cpd 48, cis-4-(6-amino-2-chloro-9H-purin-9-yl)-N-(3-methylphenyl)cyclohexanecarboxamide] |
| > 10000 | 311 | Cc1cccc(NC(=O)[C@H]2CC[C@@H](n3cnc4c(N)nc(-c5ccncc5)nc43)CC2)c1 [cpd 50, cis-4-[6-amino-2-(pyridin-4-yl)-9H-purin-9-yl]-N-(3-methylphenyl)cyclohexanecarboxamide] |
| > 10000 | 855 | Nc1nc(Cl)nc2c1ncn2[C@H]1CC[C@@H](C(N)=O)CC1 [cpd 53, cis-4-(6-amino-2-chloro-9H-purin-9-yl)cyclohexanecarboxamide] |
| > 10000 | 854 | COc1cccc(NC(=O)[C@H]2CC[C@@H](n3cnc4c(N)nc(C#CCO)nc43)CC2)c1 [cpd 60, cis-4-[6-amino-2-(3-hydroxyprop-1-yn-1-yl)-9H-purin-9-yl]-N-(3-methoxyphenyl)cyclohexanecarboxamide] |
| > 10000 | 34 | Cc1csc(NC(=O)[C@H]2CC[C@@H](n3cnc4c(N)nc(I)nc43)CC2)n1 [cpd 70, cis-4-(6-amino-2-iodo-9H-purin-9-yl)-N-(4-methyl-1,3-thiazol-2-yl)cyclohexanecarboxamide] |
| 2840 | 375 | Nc1nc(Cl)nc2c1ncn2[C@H]1CC[C@@H](C(=O)Nc2ccc(C(=O)NC3CCCCC3)cc2)CC1 [cpd 71, 4-({[cis-4-(6-amino-2-chloro-9H-purin-9-yl)cyclohexyl]carbonyl}amino)-N-cyclohexylbenzamide] |
| 5970 | 18 | C#Cc1nc(N)c2ncn([C@H]3CC[C@@H](C(=O)Nc4nc(C)cs4)CC3)c2n1 [cpd 77, cis-4-(6-amino-2-ethynyl-9H-purin-9-yl)-N-(4-methyl-1,3-thiazol-2-yl)cyclohexanecarboxamide] |
| > 10000 | 125 | Cc1csc(NC(=O)[C@H]2CC[C@@H](n3cnc4c(N)nc(-c5ccncc5)nc43)CC2)n1 [cpd 81, cis-4-[6-amino-2-(pyridin-4-yl)-9H-purin-9-yl]-N-(4-methyl-1,3-thiazol-2-yl)cyclohexanecarboxamide] |
| > 10000 | 425 | COc1cccc(NC(=O)[C@H]2CC[C@@H](n3cnc4c(N)nc(OC)nc43)CC2)c1 [cpd 83, cis-4-(6-amino-2-methoxy-9H-purin-9-yl)-N-(3-methoxyphenyl)cyclohexanecarboxamide] |
| > 10000 | 86 | COc1nc(N)c2ncn([C@H]3CC[C@@H](C(=O)Nc4nc(C)cs4)CC3)c2n1 [cpd 84, cis-4-(6-amino-2-methoxy-9H-purin-9-yl)-N-(4-methyl-1,3-thiazol-2-yl)cyclohexanecarboxamide] |
| > 10000 | – | CC1(C)Cc2nc(NC(=O)[C@H]3CC[C@@H](n4cnc5c(N)nc(F)nc54)CC3)sc2C(C)(C)N1 [cpd 190, cis-4-(6-amino-2-fluoro-9H-purin-9-yl)-N-(4,4,6,6-tetramethyl-4,5,6,7-tetrahydro[1,3]thiazolo[5,4-c]pyridin-2-yl)cyclohexanecarboxamide] |

From patent US10683292B2, “Purine and 3-deazapurine analogues as choline kinase inhibitors” (NERVIANO MEDICAL SCIENCES S.R.L., priority 2016, dated 2020)
